Laboratory results taken from patent publication US12465603B2, “Phthalazinone based modulators for the treatment of disease” (Soley Therapeutics, Inc., priority 2022, dated 2025).

Columns and labels:
[1] = system: A2058 (ATCC, CRL-11147) cells; experiment: Cell viability assay (Cell Titre Glo, 72 hours) in A2058 cells; type: cell-based; conditions: Homo sapiens
Outline: (§1)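 10-point dose response, top final concentration 30 μM, 1 in 3 dilutions; 5000 cells per well added directly to compound. Incubated 72 hours at 37° C, 5% CO2, then viability read by Cell Titre Glo luminescence and IC50 curves fitted.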

[2] = system: PA1 (ECACC, 90013101) cells; experiment: Cell viability assay (Cell Titre Glo, 72 hours) in PA1 cells; type: cell-based; conditions: Homo sapiens, PA-1
Outline: as §1

SMILES | IC50 [1] [nM] | IC50 [2] [nM]
CCn1nc(C(=O)N2CCN(c3cnccc3OC)CC2)c2cc(F)ccc2c1=O [Compound 236, 2-ethyl-6-fluoro-4-(4-(4-methoxypyridin-3-yl)piperazine-1-carbonyl)phthalazin-1(2H)-one] | ≤ 1000 | ≤ 1000
CCn1nc(C(=O)N2CCN(c3cc(Cl)cc(C#N)c3)CC2)c2cc(F)ccc2c1=O [Compound 237] | ≤ 1000 | ≤ 1000
CCn1nc(C(=O)N2CCN(c3cncc(C)c3)CC2)c2cc(F)ccc2c1=O [Compound 238] | ≤ 1000 | ≤ 1000
CCn1nc(C(=O)N2CCN(c3cc(F)cc(C#N)c3)CC2)c2cc(F)ccc2c1=O [Compound 239] | ≤ 1000 | ≤ 1000
CCn1nc(C(=O)N2CCN(c3cccc(C#N)c3)CC2)c2cc(F)ccc2c1=O [Compound 240] | ≤ 1000 | ≤ 1000
CCn1nc(C(=O)N2CCN(c3cc(F)cc(C#N)c3)CC2)c2cnccc2c1=O [Compound 241, 3-(4-(2-ethyl-1-oxo-1,2-dihydropyrido[3,4-d]pyridazine-4-carbonyl)piperazin-1-yl)-5-fluorobenzonitrile] | ≤ 1000 | ≤ 1000
CCn1nc(C(=O)N2CCN(c3cc(C#N)ccc3C3CC3)CC2)c2cnccc2c1=O [Compound 242] | ≤ 1000 | ≤ 1000
CCn1nc(C(=O)N2CCN(c3cnccc3OC)CC2)c2cnccc2c1=O [Compound 243] | 1000 to 10000 | ≤ 1000
CCn1nc(C(=O)N2CCN(c3cc(Cl)cc(C#N)c3)CC2)c2cnccc2c1=O [Compound 244] | ≤ 1000 | ≤ 1000
Cc1cncc(N2CCN(C(=O)c3nn(C)c(=O)c4ccc(Cl)cc34)CC2)c1 [Compound 245, 6-chloro-2-methyl-4-(4-(5-methylpyridin-3-yl)piperazine-1-carbonyl)phthalazin-1(2H)-one] | > 20000 | 10000 to 20000
COc1ccncc1N1CCN(C(=O)c2nn(C)c(=O)c3ccc(Cl)cc23)CC1 [Compound 246, 6-chloro-4-(4-(4-methoxypyridin-3-yl)piperazine-1-carbonyl)-2-methylphthalazin-1(2H)-one] | 1000 to 10000 | ≤ 1000
COc1ccccc1C1=CCN(C(=O)c2nn(C)c(=O)c3ccccc23)CC1 [Compound 247, 4-(4-(2-methoxyphenyl)-1,2,3,6-tetrahydropyridine-1-carbonyl)-2-methylphthalazin-1(2H)-one] | ≤ 1000 | ≤ 1000
COc1ccc(C2(C)CCN(C(=O)c3nn(C)c(=O)c4ccccc34)CC2)cc1 [Compound 248, 4-(4-(4-methoxyphenyl)-4-methylpiperidine-1-carbonyl)-2-methylphthalazin-1(2H)-one] | 1000 to 10000 | 10000 to 20000
COc1ccccc1C1(C)CCN(C(=O)c2nn(C)c(=O)c3ccccc23)CC1 [Compound 249, 4-(4-(2-methoxyphenyl)-4-methylpiperidine-1-carbonyl)-2-methylphthalazin-1(2H)-one] | 1000 to 10000 | 1000 to 10000
